Test results as given in patent US20240325359A1, “ACAT1 INHIBITOR AND METHOD OF USE IN THE TREATMENT OF DISEASE” (Trustees of Dartmouth College, priority 2023, published 2024).

How the values were obtained:
[1] = system: ACAT activity in the brain; assay: ACAT inhibition in mouse tissues after single IV of stealth nanoparticles; assay type: in vivo, mice
Protocol: Shown is the efficacy of F12511 vs. F24 encapsulated in nanoparticle and IV delivered to mice. Four hours after IV, various tissues were isolated to monitor ACAT inhibition measurement. Mice were perfused before brains were isolated. N=2-3 WT mice/group. Statistical analysis, 2-way ANOVA. **P<0.01; ***P<0.001.
Nanoparticle Formation. Nanoparticles were prepared according to a general method (Gülçür, et al. (2013) Drug Deliv. Transl. Res. 3(6):562-574; Jhaveri & Torchilin (2014) Front. Pharmacol. 5:77) with modifications. Using a clean glass tube (9 mL capacity), 60 mg of DSPE-PEG2000 (Laysan Bio, Inc (mPEG-DSPE, MW 2,000)) was dissolved in 500 μL of ethanol (EtOH) for a working concentration of 60 mM. […]
Nanoparticle Analysis. […] The content of compound was determined by extrapolation from a standard curve of a concentration gradient of the respective compound produced in the same TLC plate. The plate was stained with iodine and quantified using ImageJ. The TLC/iodine stain method detected compound, and DSPE-PEG2000/PC separately, thus allowing for encapsulation efficiency determination.
Delivery of F24 in Mice via Nanoparticles. […] Four hours after IV delivery, different tissues were isolated and the percent of ACAT inhibition was assessed.

human ACAT1 = target: T1, human ACAT1 (Homo sapiens, UniProt P35610); assay: Cholesteryl [3H]-oleate formation in CHO cells stably expressing human ACAT1
T1 sequence (P35610 1-550): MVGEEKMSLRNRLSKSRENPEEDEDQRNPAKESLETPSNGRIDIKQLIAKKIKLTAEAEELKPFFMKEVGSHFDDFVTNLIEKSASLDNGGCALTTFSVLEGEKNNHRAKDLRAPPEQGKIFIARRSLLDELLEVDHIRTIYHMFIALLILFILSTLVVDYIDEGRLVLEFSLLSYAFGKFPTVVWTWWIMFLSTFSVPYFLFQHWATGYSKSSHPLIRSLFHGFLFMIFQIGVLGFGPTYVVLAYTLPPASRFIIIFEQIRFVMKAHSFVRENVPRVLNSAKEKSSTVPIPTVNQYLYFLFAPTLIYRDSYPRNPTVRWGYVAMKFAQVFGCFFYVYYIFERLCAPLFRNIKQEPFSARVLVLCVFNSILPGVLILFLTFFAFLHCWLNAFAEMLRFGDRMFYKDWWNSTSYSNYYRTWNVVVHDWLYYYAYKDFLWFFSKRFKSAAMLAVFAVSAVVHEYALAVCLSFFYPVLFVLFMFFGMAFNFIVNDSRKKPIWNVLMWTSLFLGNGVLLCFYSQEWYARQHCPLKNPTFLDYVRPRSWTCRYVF
Protocol: (§1) Cells were placed in 10% serum for two days at 37° C. and further incubated with various concentrations of F24 as a stock solution in DMSO for 2 hours. Subsequently, a complex of [3H]-oleic acid and BSA (serving as precursor of oleyl CoA as substrate of ACAT) was fed to the cells for 2 hours. Cells were extensively washed and cellular lipids were extracted with organic solvents. Radioactivity of cholesteryl [3H]-oleate was separated by thin-layer chromatography and determined by scintillation counting.

human ACAT2 = target: T2, human ACAT2 (Homo sapiens, UniProt O75908); assay: Cholesteryl [3H]-oleate formation in CHO cells stably expressing human ACAT2
T2 sequence (O75908 1-522): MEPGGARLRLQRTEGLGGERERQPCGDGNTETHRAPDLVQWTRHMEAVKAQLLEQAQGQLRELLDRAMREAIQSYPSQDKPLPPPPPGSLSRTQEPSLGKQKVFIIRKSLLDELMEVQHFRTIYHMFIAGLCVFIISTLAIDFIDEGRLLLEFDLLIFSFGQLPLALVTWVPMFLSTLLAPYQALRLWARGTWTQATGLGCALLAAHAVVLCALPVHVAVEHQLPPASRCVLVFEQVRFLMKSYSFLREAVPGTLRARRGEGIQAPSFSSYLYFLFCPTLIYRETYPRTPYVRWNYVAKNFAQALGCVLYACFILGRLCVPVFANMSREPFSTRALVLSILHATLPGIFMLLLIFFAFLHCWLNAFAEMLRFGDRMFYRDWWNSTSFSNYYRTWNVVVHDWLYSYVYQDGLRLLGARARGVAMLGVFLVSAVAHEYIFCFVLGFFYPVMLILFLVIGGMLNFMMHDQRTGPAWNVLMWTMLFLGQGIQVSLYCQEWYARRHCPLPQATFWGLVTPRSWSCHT
Protocol: as §1

Row | SMILES | ACAT inhibition ([1]; adult C57BL/6 mice, single IV of nanoparticle F24 at low dose 0.9 mM, four hours after IV, brain) | brain permeability ([1]; mice, delivered IV via stealth nanoparticle) | EC50 (human ACAT1) | fold more potent than F12511 in inhibiting ACAT1 (human ACAT1; ratio of EC50 values, 6 nM vs. 39 nM) | EC50 (human ACAT2) | fold more potent than F12511 in inhibiting human ACAT2 (human ACAT2; ratio of EC50 values, 11 nM vs. 55 nM)
1 | CCCCCCCCCCCCSC(C(=O)Nc1c(SC)cc(C)nc1SC)c1ccccc1 (stereo not shown) [F24] | 70% | brain-permeable | 6 nM | seven-fold | 11 nM | five-fold
2 | CCCCCCCCCCCCS[C@H](C(=O)Nc1cc(C)c(O)c(C)c1C)c1ccccc1 [F12511, reference compound] | – | – | – | – | 55 nM | –
